Consider five compounds from patent US20060147548A1, “Therapeutic delivery of carbon monoxide” (priority 2002, published 2006).

Data set [1] concerns Myoglobin (Mb). The data set is described as follows: Conversion of myoglobin (Mb) to carbon monoxide myoglobin (MbCO), CO release. Type of data set: biochemical. The conditions noted are these: for conversion of Mb to MbCO: Mb 50 μM, absorption spectrum. The text has this:
This method has been previously developed to monitor and determine the amount of CO released from CO-RMs (7).

The target in data set [2] is T1, purified guanylate cyclase (Bos taurus, UniProt P16068).
T1 sequence (P16068 1-619): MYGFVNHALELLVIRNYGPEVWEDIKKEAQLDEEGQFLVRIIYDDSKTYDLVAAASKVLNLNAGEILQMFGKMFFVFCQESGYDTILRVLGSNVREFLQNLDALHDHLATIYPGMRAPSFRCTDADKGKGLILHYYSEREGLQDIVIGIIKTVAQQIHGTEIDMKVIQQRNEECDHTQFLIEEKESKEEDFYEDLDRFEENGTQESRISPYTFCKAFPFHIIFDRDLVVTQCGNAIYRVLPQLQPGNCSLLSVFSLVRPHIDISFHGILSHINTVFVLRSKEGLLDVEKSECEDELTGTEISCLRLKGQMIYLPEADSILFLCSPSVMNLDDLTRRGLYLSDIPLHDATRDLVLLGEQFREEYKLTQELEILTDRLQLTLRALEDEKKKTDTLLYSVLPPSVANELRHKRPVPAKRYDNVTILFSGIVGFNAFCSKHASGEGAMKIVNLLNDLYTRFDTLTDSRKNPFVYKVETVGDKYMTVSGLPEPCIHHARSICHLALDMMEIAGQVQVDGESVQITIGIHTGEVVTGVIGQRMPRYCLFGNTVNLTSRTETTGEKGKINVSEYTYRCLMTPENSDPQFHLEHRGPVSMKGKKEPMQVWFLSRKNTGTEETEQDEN
T1 sequence (P19687 1-691 partner): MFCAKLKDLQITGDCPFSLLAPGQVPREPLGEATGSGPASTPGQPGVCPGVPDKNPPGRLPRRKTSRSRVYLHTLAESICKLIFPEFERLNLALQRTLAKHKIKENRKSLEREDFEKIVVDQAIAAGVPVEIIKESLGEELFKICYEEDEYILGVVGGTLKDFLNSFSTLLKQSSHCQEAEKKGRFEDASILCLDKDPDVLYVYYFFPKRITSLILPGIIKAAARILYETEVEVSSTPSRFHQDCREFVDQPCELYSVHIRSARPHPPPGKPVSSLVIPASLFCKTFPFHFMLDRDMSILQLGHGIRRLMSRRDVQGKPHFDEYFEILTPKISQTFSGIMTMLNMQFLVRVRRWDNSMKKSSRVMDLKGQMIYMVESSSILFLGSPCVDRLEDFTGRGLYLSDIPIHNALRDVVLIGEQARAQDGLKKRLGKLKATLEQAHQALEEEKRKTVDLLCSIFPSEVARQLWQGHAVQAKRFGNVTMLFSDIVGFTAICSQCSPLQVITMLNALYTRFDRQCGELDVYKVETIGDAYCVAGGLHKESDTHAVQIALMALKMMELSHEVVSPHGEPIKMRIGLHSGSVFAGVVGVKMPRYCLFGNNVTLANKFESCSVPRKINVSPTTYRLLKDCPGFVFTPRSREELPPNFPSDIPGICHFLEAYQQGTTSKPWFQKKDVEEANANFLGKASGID
To be noted: in vitro; literature reference (8); cited from earlier work.

For data set [3], the system named is isolated aortic rings pre-contracted with phenylephrine. The data set is described as follows: Relaxation of isolated rat aortic rings pre-contracted with phenylephrine. Type of data set: cell-based. To be noted: for relaxation as percentage of the maximal phenylephrine-mediated contraction: Example 1; for percentage of relaxation: Example 4A, 100 μM CORM-3. Here is the method:
The method for the preparation of isolated aortic rings has been previously described (5; 7). The thoracic aorta was isolated from Sprague-Dawley rats (350-450 g) and flushed with cold Krebs-Henseleit buffer (4° C., pH 7.4) containing (in mM): 118 NaCl, 4.7 KCl, 1.2 KH2PO4, 1.2 MgSO4.7H2O, 22 NaHCO3, 11 Glucose, 0.03 K^+EDTA, 2.5 CaCl2 and supplemented with 10 AM indomethacin. Each aorta was trimmed of adventitial tissue and ring sections (˜3 mm length) were produced from the mid aortic segment. The rings were then mounted between two stainless steel hooks in 9-ml organ baths containing Krebs-Henseleit buffer which was maintained at 37° C. and continuously gassed with 95% O2-5% CO2. One hook was attached to a Grass FT03 isometric force transducer whilst the other was anchored to a sledge for regulation of the resting tension of the aortic ring. The rings were initially equilibrated for 30 min under a resting tension of 2 g which was previously determined to be optimal. Continuous recording of tension was made on a Grass 7D polygraph (Grass Instruments, Quincy, Mass.) in combination with a Biopac MP100 system using AcqKnowledge™ software (Linton Instruments, Norfolk, UK). Before each protocol was carried out, rings were contracted with a standard dose of KCl (100 mM) in order to provide an internal reference and to control for variability in contractile responsiveness between tissues.
The preparation of isolated aortic rings and recording of tension was as in Example 1. Before each protocol was carried out, rings were contracted with a standard dose of KCl (100 mM) in order-to provide an internal reference and to control for variability in contractile responsiveness between tissues. […] An additional set of experiments was performed in which the vascular endothelium was removed from the aortic tissue prior to CORM-3 addition.

The subject of the next data set is Lewis rats. In words: Effect on mean arterial pressure in anaesthetised rats. The data set is classed as in vivo, rat. How it is done:
Lewis rats (280-350 g) were anaesthetised by intramuscular injection of 1 ml/kg Hypnorm. Specially designed femoral artery and venous catheters were then surgically implanted as previously described (5; 6) and blood pressure monitored continuously using a polygraph recorder.

The test system of a further data set is human platelets. To be noted: increased cGMP levels by YC-1 in the presence of CO; literature reference (1); cited from earlier work.
Data set [4] deals with isolated aortic rings pre-contracted with phenylephrine. The conditions noted are these: stated as known; species not given; cited from earlier work.
Data set [5] deals with Myoglobin (Mb). The conditions noted are these: stated as known; cited from earlier work.

In the case of `[C-]#[O+]` [CO, carbon monoxide], in the data set on Myoglobin (Mb) [1], the “conversion of Mb to MbCO” value is listed as “rapid conversion to carbon monoxide myoglobin (MbCO)”. Also, the “increase of enzymatic activity of purified guanylate cyclase” value in data set [2] was 4.4 fold.
Take `NCC(=O)O.[C-]#[O+].[C-]#[O+].[C-]#[O+].[Cl][Ru]` [CORM-3, Ru(CO)3Cl(NH2CH2CO2)]: the “conversion of Mb to MbCO” value with Myoglobin (Mb) [1] is recorded as “formation of MbCO is observed”. Also, the “loss of CO on incubation” value in the data set on Myoglobin (Mb) [1] (incubating overnight at 37° C. in phosphate buffer at pH=7.4) was “rapidly lost”. For the same compound, the “relaxation as percentage of the maximal phenylephrine-mediated contraction” value is on record as 33% in data set [3] (CORM-3 25 μM, after first addition, presence of YC-1 (5 μM, 30 min pre-incubation)); 66.6% in data set [3] (CORM-3 25 μM, after second addition, presence of YC-1 (5 μM, 30 min pre-incubation)); 80.9% in data set [3] (CORM-3 25 μM, after third addition, presence of YC-1 (5 μM, 30 min pre-incubation)); 10.3% in data set [3] (CORM-3 25 AM per addition, after first addition, absence of YC-1); 24.1% in data set [3] (CORM-3 25 AM per addition, after second addition, absence of YC-1); 38% in data set [3] (CORM-3 25 AM per addition, after third addition, absence of YC-1). Moreover, the relaxation entry in data set [3] (Example 3, 100 μM, within few minutes from addition) was “approximately 54%”; in data set [3] (Example 4B, 25 μM CORM-3, after the third addition, pre-treatment with YC-1 (1 μM, 30 min)), 77%; in data set [3] (Example 4B, 25 μM CORM-3 alone, after the third addition), “approximately 31%”; in data set [3] (Example 4C, CORM-3 alone, first addition), “approximately 37%”; in data set [3] (Example 4C, CORM-3 first addition, presence of L-NAME (100 μM) in the organ bath), 5%. The percentage of relaxation in data set [3] (first addition, in the presence of ODQ (10 μM, 15 min prior)) was 1.0±0.8%; in data set [3] (first addition, in the presence of glibenclamide (10 μM, 30 min prior)), 13.2±4.1%; in data set [3] (first cumulative addition, mean±S.E.M., 6 experiments) it was 37.5±5.3%; in data set [3] (second cumulative addition, mean±S.E.M., 6 experiments) it was 48.2±4.4%; in data set [3] (third cumulative addition, mean±S.E.M., 6 experiments), 53.9±4.3%. Besides, the “effect of YC-1 on CORM-3-mediated relaxation” value in data set [3] (Example 4B, 50 μM and 100 μM CORM-3, YC-1 1 μM pre-treatment) was “potentiation of relaxation”. For the same compound, in data set [3] (Example 4C, CORM-3 200 and 400 μM, L-NAME present), the “effect of L-NAME on relaxation at increased CORM-3 concentration” value is listed as “reversed”. The “response of aortic rings without the endothelium (−E)” value in data set [3] (Example 4C, endothelium removed, unless CORM-3 increased to 400 μM) is “did not respond to CORM-3 in the same way as intact vessels”. The “decrease in MAP” value worked out at 37.0±2.4 mmHg in the data set with Lewis rats (CORM-3 30 μmoles/kg i.v. first injection, YC-1 1.2 μmoles/kg i.v. 5 min before); 22.0±2.3 mmHg in the data set on Lewis rats (CORM-3 30 μmoles/kg i.v. second injection, YC-1 1.2 μmoles/kg i.v. 5 min before first injection); 9.4±2.8 mmHg in the data set with Lewis rats (CORM-3 alone 30 μmoles/kg i.v., first injection, recorded 20 min after injection); 13.3±4.9 mmHg with Lewis rats (CORM-3 alone 30 μmoles/kg i.v., second bolus 20 min after the first).
Consider `[N]=O` [NO, nitric oxide], for which, in data set [2], the “increase of enzymatic activity of purified guanylate cyclase” value is listed as 130 fold.
Regarding `OCc1ccc(-c2nn(Cc3ccccc3)c3ccccc23)o1` [YC-1, 3-(5′-hydroxymethyl-2′-furyl)-1-benzyl-indazole, reference compound], the “change in vessel contractility” value in data set [3] (Example 4B, pre-treatment with YC-1 alone (1 μM, 30 min)) is “did not cause any significant change in vessel contractility”. The “inhibition of platelet aggregation” value in the data set with human platelets is “complete inhibition of platelet aggregation”. The “decrease in MAP” value with Lewis rats (YC-1 1.2 μmoles/kg i.v., after 5 min, before CORM-3) is 7.0±1.6 mmHg.
As to [Fe(SPh)2(2,2′-bipyridine) (CO)2], the “dilatation of pre-contracted aortic rings” value in data set [4] is reported as “capable of promoting dilatation of pre-contracted aortic rings”. Further, in the data set with Myoglobin (Mb) [5], the “release of CO to myoglobin in solution” value was “does not release CO to myoglobin in solution”.
